Test results as given in patent US20230277591A1 (JULIUS-MAXIMILIANS-UNIVERSITÄT WÜRZBURG, priority 2017, published 2023).
Entries after “also recorded” stand apart in the source; their conditions may differ.

Columns and labels:
[1] = system: MOLM-13 AML cells; experiment: Flow cytometric analysis of surface expression (FLT3, CD33, CD123) after FLT3 inhibitor treatment, MOLM-13; assay type: cell-based, human; conditions: for time to decrease of FLT3 expression to baseline levels after withdrawal of drug: MOLM-13, midostaurin: baseline or slightly below baseline
Method: (§1) Cell surface expression of FLT3 (CD135) was analyzed using a conjugated mouse-anti-human-FLT3 mAb (clone 4G8, BD Pharmagin, BD Biosciences, Germany) and mouse IgG1 isotype control (BD Pharmagin). In brief, 1×10^6 cells were washed, resuspended in 100 µL PBS/0.5% fetal calf serum and stained with 5 µL of anti-FLT3 mAb or isotype for 30 minutes at 4° C.
A complete medium change was performed every 7 days, MOLM-13 cells adjusted to 1×10^6/mL medium and 2 mL of this cell suspension plated per well in […] (Costar, Corning, NJ). After 2-3 weeks of culture with 10 nM midostaurine, MOLM-13 cells were exposed to exponentially increasing concentration of midostaurine for next 8-10 weeks to reach 50 nM midostaurin.

[2] = system: MOLM-13 AML cells; experiment: MOLM-13 xenograft model of AML in NSG mice; assay type: in vivo, mouse
Method: (§2) All experiments were approved by the Institutional Animal Care and Use Committees of the participating institutions. NOD.Cg-Prkdc^scid Il2rg^tm1Wjl/SzJ (NSG) mice (female, 6-8 week old) were purchased from Charles River or bred in-house. Mice were inoculated with 1×10^6 ffluc_GFP^+ MOLM-13 AML cells by tail vein injection on day 0, and received a single dose of 5×10^6 T cells (in 200 µL of PBS/0.5% FCS) by tail vein injection on day 7. Crenolanib [15 mg/kg; 200 µL of 30% glycerol formal (Sigma Aldrich, Munich, Germany)] was administered intraperitoneally (i.p.) Monday-Friday for 3 consecutive weeks. AML progression/regression was assessed by serial bioluminescence imaging following i.p. administration of D-luciferin substrate (0.3 mg/g body weight) (Biosynth, Staad, Switzerland) using an IVIS Lumina imaging system (Perkin Elmer, Waltham, Massachusetts). Data was analyzed using Living Image software (Perkin Elmer).
as §2, with “Crenolanib [15 mg/kg; 200 µL of 30% glycerol formal (Sigma Aldrich, Munich, Germany)] was administered intraperitoneally (i.p.) Monday-Friday for 3 consecutive weeks.” left out

[3] = system: JeKo-1 mantle cell lymphoma; experiment: Flow cytometric analysis of FLT3 expression after FLT3 inhibitor treatment, JeKo-1; assay type: cell-based, human; conditions: JeKo-1, wild-type FLT3
Method: as §1

[4] = system: THP-1 AML cells; experiment: Flow cytometric analysis of FLT3 expression after FLT3 inhibitor treatment, THP-1; assay type: cell-based, human; conditions: THP-1, wild-type FLT3
Method: as §1

[5] = system: FLT3 CAR-T cells
[6] = system: MV4;11 AML cells; experiment: Flow cytometric analysis of surface expression after FLT3 inhibitor treatment, MV4;11; assay type: cell-based, human
Method: as §1

[7] = system: K562 erythro-myeloid leukemia; experiment: Flow cytometric analysis of FLT3 expression after FLT3 inhibitor treatment, K562; assay type: cell-based, human; conditions: K562, wild-type FLT3
Method: as §1

[8] = system: MV4;11 AML cells; experiment: Antibody-dependent cellular cytotoxicity (ADCC) assay; assay type: cell-based, human; conditions: mAb 5000 ng/mL, PBMC 50:1, 24 h
Method: MV4;11 cells were plated at a concentration of 1×10^6/mL in 1 mL per well in 24-well plates (Costar, Corning, NJ).
MV4;11 AML cells transduced with firefly luciferase (ffluc) were utilized for ADCC assays. MV4;11 AML cells were pre-treated with FLT3 inhibitors for 7 days or were left untreated. Target cells were co-incubated with healthy donor derived PBMCs at an effector-to-target ratio of 50:1 in triplicate wells of 96-well flat-bottom plates in the presence of solvent control, IgG1 isotype control (5000 ng/mL) or anti-FLT3 BV10 mAb (5000 ng/mL) (Biolegend, London, UK). ADCC was determined in a bioluminescence-based assay after 24 hours^40. Luciferin substrate was added to the co-culture and the decrease in luminescence signal was measured using a luminometer (Tecan, Männedorf, Switzerland). The percentage of viable cells was calculated using the following formula: % viability = bioluminescence signal in the presence of effector cells and BV10 mAb (with or without FLT3 inhibitor pre-treatment) × 100 / bioluminescence signal in the control condition.

[9] = 4G8 CAR (Example 1), crenolanib 15 mg/kg i.p.

With `CC1(COc2ccc3c(c2)ncn3-c2ccc3cccc(N4CCC(N)CC4)c3n2)COC1` [crenolanib] the “FLT3 surface protein (MFI) compared to MOLM-13native” value ([1]; 10 nM midostaurin 2-3 weeks, 10 nM crenolanib 5 days, 1 nM quizartinib 5 days, p < 0.05) was “significantly higher levels”, the “time to decrease of FLT3 expression to baseline levels after withdrawal of drug” value [1] was ≤ 2 days and the “FLT3 expression upon re-exposure to the drug” value ([1]; MOLM-13 after withdrawal) was “increased again”. For the same molecule, the “CD33 expression on MOLM-13” value ([1]; inhibitor-treated vs native) was “not affected”, the “CD123 expression on MOLM-13” value ([1]; inhibitor-treated vs native) was “not affected” and the overall response rate ([2]; 4G8 CAR (Example 1), 5×10^6 T cells day 7, crenolanib 15 mg/kg i.p., n=8 per group) was 0%. The “AML cells in peripheral blood, bone marrow and spleen at experiment endpoint” value [2, 9] was “high degree of leukemia infiltration”, the antileukemia efficacy [2, 9] was “only a minute antileukemia effect” and the “FLT3 on MOLM-13 cells recovered from peripheral blood and bone marrow at experiment endpoint” value ([2]; crenolanib monotherapy 15 mg/kg i.p.) was “uniformly and strongly upregulated”. For the same molecule, the “increase in FLT3 expression upon exposure” value [3] was “did not occur”, the “increase in FLT3 expression upon exposure” value [4] was “did not occur” and the “effect of the drug per se on (viability and) function of FLT3 CAR-T cells” value [5] was “not affected; also recorded: did not affect”. For the same molecule, the “FLT3 expression upon exposure” value ([6]; MV4;11 (FLT3-ITD+/+)) was “increase”, the “CD33 expression on MV4;11” value ([6]; inhibitor-treated) was “not affected” and the “CD123 expression on MV4;11” value ([6]; inhibitor-treated) was “not affected”. For the same molecule, the “increase in FLT3 expression upon exposure” value [7] was “did not occur”.

For `CO[C@@H]1[C@H](N(C)C(=O)c2ccccc2)C[C@H]2O[C@]1(C)n1c3ccccc3c3c4c(c5c6ccccc6n2c5c31)C(=O)NC4` [midostaurin], the “time to decrease of FLT3 expression to baseline levels after withdrawal of drug” value [1] was ≤ 2 days, the “mice with leukemia reduction (response rate)” value ([2]; BV10 CAR (Example 3), midostaurin experiment, BL day 7 to day 11, n=4 per group) was 0% and the “MFI of FLT3 higher, mouse with lowest FLT3 expression vs mouse without drug” value ([2]; midostaurin 1 mg/kg i.p., bone marrow MOLM-13) was 30%. For the same molecule, the “effect of the drug per se on (viability and) function of FLT3 CAR-T cells” value [5] was “not affected; also recorded: did not affect”.

B1: BV10 mAb: anti-FLT3 monoclonal antibody BV10 (Biolegend) used in ADCC assay (antibody, V domains shown)
VH: QVQLKQSGPGLVQPSQSLSITCTVSGFSLTNYGLHWVRQSPGKGLEWLGVIWSGGSTDYNAAFISRLSISKDNSKSQVFFKMNSLQADDTAIYYCARKGGIYYANHYYAMDYWGQGTSVTVSS
VL: DIVMTQSPSSLSVSAGEKVTMSCKSSQSLLNSGNQKNYMAWYQQKPGQPPKLLIYGASTRESGVPDRFTGSGSGTDFTLTISSVQAEDLAVYYCQNDHSYPLTFGAGTKLELKR
In the case of B1, the “MV4;11 cells eliminated (ADCC)” value ([8]; crenolanib-treated MV4;11 (10 nM, 7 days)) is reported as 39%, the “MV4;11 cells eliminated (ADCC)” value ([8]; midostaurin-treated MV4;11 (50 nM, 7 days)) is reported as 26% and the “MV4;11 cells eliminated (ADCC)” value ([8]; quizartinib-treated MV4;11 (1 nM, 7 days)) is reported as 46%. The “MV4;11 cells eliminated (ADCC)” value ([8]; without FLT3 inhibitor pre-treatment) was 13%.
